Measurements: patent publication US20060275229A1, “Skin care active complex and methods of using same” (priority 2005, published 2006)

What was measured:
[1] = biological target: T1, human neutrophil elastase (Homo sapiens, UniProt P08246); assay: Neutrophil elastase inhibition, chromogenic substrate assay; type: biochemical
T1 construct: purchased Athens Research and Technology, GA
T1 sequence (P08246 30-267): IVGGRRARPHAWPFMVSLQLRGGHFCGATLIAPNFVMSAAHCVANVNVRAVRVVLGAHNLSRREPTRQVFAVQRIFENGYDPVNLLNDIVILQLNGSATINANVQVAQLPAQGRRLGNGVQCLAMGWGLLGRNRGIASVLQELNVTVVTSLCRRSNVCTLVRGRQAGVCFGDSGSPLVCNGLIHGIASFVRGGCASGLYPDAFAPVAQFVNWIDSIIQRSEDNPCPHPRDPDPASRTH
Text: In combination, these three enzymes are capable of extensively degrading all of the protein components of the extracellular matrix (ECM) including collagens I and III (the major collagen types in the skin), elastin and the various glycoprotein components (e.g., fibronectin). Elevated expression of these proteases is triggered by inflammatory stimuli such as UV light, and their activity results in ECM damage that is a major component of skin aging.
Ursolic acid is a powerful inhibitor of elastase activity. The inhibition activity of ursolic acid was tested by incubating it with a human neutrophil elastase sample (obtained from Athens Research and Technology, GA) for 10 minutes with a chromogenic substrate, given below. The change in optical density of the substrate at 405 nm was recorded one reading per minute at room temperature reaction mixtures in a 96-well plate. The reaction mixture contains 300 µg/ml methoxysuccinyl-Ala-Ala-Pro-Val-pNA (chromogenic substrate); […] human neutrophil elastase at concentrations in the range 0.55%-3.3%; 70 mM Tris-HCl (pH 8); and 200 mM NaCl.
The % inhibition is calculated relative to the no-sample control.

[2] = Inhibition of UV-induced lipid peroxidation of phospholipid liposomes (antioxidant test, malonaldehyde); type: biochemical; conditions: lecithin liposomes, UV light for 4 hours
Procedure: Unsaturated fatty acids are present in the phospholipids of cell membranes. Their oxidation compromises membrane integrity and also leads to the generation of breakdown products that are damaging to other important cellular components such as proteins and nucleic acids. Since the skin is exposed to large doses of UV light from the sun, UV-induced peroxidation is a significant route of oxidant damage. […] The left column of Table 2 lists the compounds that were tested, while the right column lists each corresponding compound the effective concentration that inhibits oxidation by 50%. The assay was performed by irradiating a suspension of lecithin liposomes with UV light for 4 hours in the absence of or in the presence of the different compounds listed in the table. […] The rate of lipid oxidation was calculated from the increase in malonaldehyde content.

## C[C@H]1[C@H](C)CC[C@]2(C(=O)O)CC[C@]3(C)C(=CC[C@@H]4[C@@]5(C)CC[C@H](O)C(C)(C)[C@@H]5CC[C@]43C)[C@H]12 [Ursolic Acid, Ursolic acid]
[1]; concentration 0.0004 %
  Elastase Inhibition (%): 26%
[1]; concentration 0.0008 %
  Elastase Inhibition (%): 44%
[1]; concentration 0.0012 %
  Elastase Inhibition (%): 58%
[1]; concentration 0.002 %
  Elastase Inhibition (%): 72%
[1]; concentration 0.004 %
  Elastase Inhibition (%): 81%
[1]; concentration 0.006 %
  Elastase Inhibition (%): 84%
[1]; concentration 0.01 %
  Elastase Inhibition (%): 86%
[1]; human neutrophil elastase, chromogenic substrate, Example 4
  IC50 value for elastase inhibition: about 0.0008%

## O=C(O[C@@H]1Cc2c(O)cc(O)cc2O[C@@H]1c1cc(O)c(O)c(O)c1)c1cc(O)c(O)c(O)c1 [Epigallocatechin gallate (EGCG), Epigallocatechin gallate]
[2]
  EC50 (concentration that inhibits oxidation by 50%): 0.0003 % w/w

## O=C1O[C@H]([C@@H](O)CO)C(O)=C1O [Vitamin C (Ascorbic Acid), Ascorbic Acid]
[2]
  EC50 (concentration that inhibits oxidation by 50%): 0.002 % w/w

## CC(=O)Oc1c(C)c(C)c2c(c1C)CCC(C)(CCC[C@H](C)CCC[C@H](C)CCCC(C)C)O2 (some centres unmarked) [Vitamin E acetate]
[2]
  EC50 (concentration that inhibits oxidation by 50%): 0.022 % w/w
